Biological target: T1, FGFR1 (Homo sapiens, UniProt P11362)
T1 construct: purchased Millipore
Test: ELISA kinase assay, FGFR1 enzymatic activity
Format: biochemical
Settings: for inhibition at 0.01 µM / inhibition at 0.1 µM / inhibition at 1 µM / inhibition at 5 µM / inhibition at 10 µM / FGFR1 Inhibition (%): mean of two separate experiments
Method: The effects of compounds on the activities of indicated (FGFR1 and c-Met) kinases were determined using enzyme-linked immunosorbent assays (ELISAs) with purified recombinant proteins. Briefly, 20 μg/mL poly (Glu, Tyr)4:1 (Sigma, St. Louis, MO, USA) was precoated in 96-well plates as a substrate. A 50-μL aliquot of 10 μmol/L ATP solution diluted in kinase reaction buffer (50 mmol/L HEPES (pH 7.4), 50 mmol/L MgCl2, 0.5 mmol/L MnCl2, 0.2 mmol/L Na3VO4, and 1 mmol/L DTT) was added to each well; 1 μL of various concentrations of compounds diluted in 1% DMSO (v/v) (Sigma) were then added to each reaction well. DMSO (1%, v/v) was used as the negative control. The kinase reaction was initiated by the addition of purified tyrosine kinase proteins FGFR1 (Millipore, Darmstadt, Germany) or c-Met (Millipore) diluted in 49 μL of kinase reaction buffer. After incubation for 60 min at 37 °C, the plate was washed three times with phosphate-buffered saline (PBS) containing 0.1% Tween 20 (T-PBS). Anti-phosphotyrosine (PY99) antibody (Sanra Cruz, Dallas, TX, USA) (100 μL; 1:500, diluted in 5 mg/mL bovine serum albumin (BSA) T-PBS) was then added. After a 30-min incubation at 37 °C, the plate was washed three times, and 100 μL of horseradish peroxidase-conjugated goat anti-mouse IgG (Calbiochem, Shanghai, China) (1:2000, diluted in 5 mg/mL BSA T-PBS) was added. The plate was then incubated at 37 °C for 30 min, and washed three times. A 100-μL aliquot of a solution containing 0.03% H2O2 and 2 mg/mL o-phenylenediamine in 0.1 mol/L citrate buffer (pH 5.5) was added. The reaction was terminated by the addition of 50 μL of 2 mol/L H2SO4 as the color changed, and the plate was analyzed using a multi-well spectrophotometer (SpectraMAX 190, Molecular Devices, Palo Alto, CA, USA) at 490 nm. The inhibition rate (%) was calculated using the following equation:IR = [1 − (A490/A490control)] × 100%.(1) where IR, A490, and A490control are the inhibition rate, the absorbance value of the tested compound at 490 nm, and the absorbance value of the negative control compound at 490 nm, respectively. The IC50 values were calculated from the inhibition curves in two separate experiments.

T1 sequence (P11362 22-822): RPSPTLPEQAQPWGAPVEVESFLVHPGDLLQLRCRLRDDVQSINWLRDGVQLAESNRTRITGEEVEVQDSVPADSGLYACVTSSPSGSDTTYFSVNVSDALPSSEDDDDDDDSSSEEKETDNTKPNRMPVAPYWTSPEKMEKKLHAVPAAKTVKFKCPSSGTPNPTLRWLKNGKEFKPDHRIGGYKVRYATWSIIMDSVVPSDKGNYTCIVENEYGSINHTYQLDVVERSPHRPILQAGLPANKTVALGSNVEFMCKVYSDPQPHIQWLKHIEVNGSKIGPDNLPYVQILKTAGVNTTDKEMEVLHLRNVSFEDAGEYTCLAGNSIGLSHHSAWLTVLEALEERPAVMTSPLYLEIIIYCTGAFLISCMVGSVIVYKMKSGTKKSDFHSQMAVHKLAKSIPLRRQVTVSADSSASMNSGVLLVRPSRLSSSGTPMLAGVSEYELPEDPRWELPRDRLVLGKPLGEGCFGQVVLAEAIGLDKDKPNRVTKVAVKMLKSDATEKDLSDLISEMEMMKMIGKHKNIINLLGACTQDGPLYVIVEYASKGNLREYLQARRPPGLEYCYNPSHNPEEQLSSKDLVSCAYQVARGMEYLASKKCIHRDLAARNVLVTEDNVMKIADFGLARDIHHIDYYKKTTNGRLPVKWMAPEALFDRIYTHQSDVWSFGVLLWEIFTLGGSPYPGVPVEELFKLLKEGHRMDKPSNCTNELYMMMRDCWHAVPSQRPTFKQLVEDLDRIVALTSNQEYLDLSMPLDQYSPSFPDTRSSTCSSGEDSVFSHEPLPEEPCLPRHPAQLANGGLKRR

| Compound | inhibition at 0.01 µM (0.01 μM (10 nM)) [%] | inhibition at 0.1 µM (0.1 μM) [%] | inhibition at 1 µM (1 μM) [%] | other results |
| --- | --- | --- | --- | --- |
| CC(=O)Cn1cc(-c2cnc3ccn(S(=O)(=O)c4cn(CCF)cn4)c3n2)cn1 [Compound 18, 1-(4-(5-((1-(2-Fluoroethyl)-1H-imidazol-4-yl)sulfonyl)-5H-pyrrolo[2,3-b]pyrazin-3-yl)-1H-pyrazol-1-yl)propan-2-one] | 24.6 | 13.3 | 22.6 | – |
| Cn1cc(-c2cnc3ccn(S(=O)(=O)c4c(Cl)nc5sccn45)c3n2)cn1 [Compound 9, 6-Chloro-5-((3-(1-methyl-1H-pyrazol-4-yl)-5H-pyrrolo[2,3-b]pyrazin-5-yl)sulfonyl)imidazo[2,1-b]thiazole] | – | – | – | inhibition at 5 µM: 83.7%; inhibition at 10 µM: 92.5% |
| O=S(=O)(c1cnc2cccnn12)n1ccc2ncc(-c3cn[nH]c3)nc21 [Compound 35, 5-(Imidazo[1,2-b]pyridazin-3-ylsulfonyl)-3-(1H-pyrazol-4-yl)-5H-pyrrolo[2,3-b]pyrazine] | 31.8 | 68.7 | 90.6 | – |
| CC(=O)n1cc(-c2cnc3ccn(S(=O)(=O)c4cn(CCF)cn4)c3n2)cn1 [Compound 15, 1-(4-(5-((1-(2-fluoroethyl)-1H-imidazol-4-yl)sulfonyl)-5H-pyrrolo[2,3-b]pyrazin-3-yl)-1H-pyrazol-1-yl)ethan-1-one] | 35.9 | 25.9 | 70.9 | – |
| Cn1cc(-c2cnc3cnn(S(=O)(=O)c4c(Cl)nc5sccn45)c3c2)cn1 [Compound 5, 6-chloro-5-((6-(1-methyl-1H-pyrazol-4-yl)-1H-pyrazolo[4,3-b]pyridin-1-yl)sulfonyl)imidazo[2,1-b]thiazole] | – | – | – | inhibition at 10 µM: > 50% |
| Cn1cnc(S(=O)(=O)n2ccc3ncc(-c4cnn(C)c4)nc32)c1 [Compound 11, 5-((1-Methyl-1H-imidazol-4-yl)sulfonyl)-3-(1-methyl-1H-pyrazol-4-yl)-5H-pyrrolo[2,3-b]pyrazine] | – | – | – | inhibition at 5 µM: 58.1%; inhibition at 10 µM: 86% |
| COC(=O)Cn1cc(-c2cnc3ccn(S(=O)(=O)c4cn(CCF)cn4)c3n2)cn1 [Compound 19, Methyl 2-(4-(5-((1-(2-fluoroethyl)-1H-imidazol-4-yl)sulfonyl)-5H-pyrrolo[2,3-b]pyrazin-3-yl)-1H-pyrazol-1-yl)acetate] | 7.3 | 12 | 40.7 | – |
| Methyl 2-(4-(5-((1-(2-fluoroethyl)-1H-imidazol-4-yl)sulfonyl)-5H-pyrrolo[2,3-b]pyrazin-3-yl)-1H-pyrazol-1-yl)acetate [Compound 17] | – | – | – | FGFR1 Inhibition (%) (0.01 μM (10 nM)): −3.3%; FGFR1 Inhibition (%) (0.1 μM): 15.6%; FGFR1 Inhibition (%) (1 μM): 56.8% |
| CNC(=O)Cn1cc(-c2cnc3ccn(S(=O)(=O)c4cn(CCF)cn4)c3n2)cn1 [Compound 21, 2-(4-(5-((1-(2-Fluoroethyl)-1H-imidazol-4-yl)sulfonyl)-5H-pyrrolo[2,3-b]pyrazin-3-yl)-1H-pyrazol-1-yl)-N-methylacetamide] | 12.5 | 14.9 | 65.6 | – |
| Cn1cc(-c2cnc3ccn(S(=O)(=O)c4cnn5cccnc45)c3n2)cn1 [Compound 10, 3-(1-Methyl-1H-pyrazol-4-yl)-5-(pyrazolo[1,5-a]pyrimidin-3-ylsulfonyl)-5H-pyrrolo[2,3-b]pyrazine] | – | – | – | inhibition at 5 µM: 77%; inhibition at 10 µM: 91% |
| CC(C)Cn1cnc(S(=O)(=O)n2ccc3ncc(-c4cn[nH]c4)nc32)c1 [Compound 31, 5-((1-Isobutyl-1H-imidazol-4-yl)sulfonyl)-3-(1H-pyrazol-4-yl)-5H-pyrrolo[2,3-b]pyrazine] | 13.9 | 19.9 | 37.1 | – |
| CCC(=O)n1cc(-c2cnc3ccn(S(=O)(=O)c4cn(CCF)cn4)c3n2)cn1 [Compound 16, 1-(4-(5-((1-(2-Fluoroethyl)-1H-imidazol-4-yl)sulfonyl)-5H-pyrrolo[2,3-b]pyrazin-3-yl)-1H-pyrazol-1-yl)propan-1-one] | 15.1 | 55.8 | 94.6 | – |
| CCOC(=O)Cn1cc(-c2cnc3ccn(S(=O)(=O)c4cn(CCF)cn4)c3n2)cn1 [Compound 20, Ethyl 2-(4-(5-((1-(2-fluoroethyl)-1H-imidazol-4-yl)sulfonyl)-5H-pyrrolo[2,3-b]pyrazin-3-yl)-1H-pyrazol-1-yl)acetate] | 7.2 | 5.4 | 49.6 | – |
| CS(=O)(=O)n1cc(-c2cnc3ccn(S(=O)(=O)c4cn(CCF)cn4)c3n2)cn1 [Compound 23, 5-((1-(2-Fluoroethyl)-1H-imidazol-4-yl)sulfonyl)-3-(1-(methylsulfonyl)-1H-pyrazol-4-yl)-5H-pyrrolo[2,3-b]pyrazine] | 20.9 | 37.1 | 82.3 | – |
| CNC(=O)Cn1cnc(S(=O)(=O)n2ccc3ncc(-c4cn[nH]c4)nc32)c1 [Compound 33, 2-(4-((3-(1H-Pyrazol-4-yl)-5H-pyrrolo[2,3-b]pyrazin-5-yl)sulfonyl)-1H-imidazol-1-yl)-N-methylacetamide] | 19.9 | 43.8 | 82.4 | – |
| O=S(=O)(c1cn(CCF)cn1)n1ccc2ncc(-c3cnn(S(=O)(=O)C4CC4)c3)nc21 [Compound 24, 3-(1-(Cyclopropylsulfonyl)-1H-pyrazol-4-yl)-5-((1-(2-fluoroethyl)-1H-imidazol-4-yl)sulfonyl)-5H-pyrrolo[2,3-b]pyrazine] | 16.6 | 13.5 | 29.5 | – |
| Cn1cc(-c2cnc3ccn(S(=O)(=O)c4cn(CCF)cn4)c3n2)cn1 [Compound 12, 5-((1-(2-Fluoroethyl)-1H-imidazol-4-yl)sulfonyl)-3-(1-methyl-1H-pyrazol-4-yl)-5H-pyrrolo[2,3-b]pyrazine] | – | – | – | inhibition at 5 µM: 68.9%; inhibition at 10 µM: 89% |
| CCOC(=O)C(C(=O)OCC)n1cc(-c2cnc3ccn(S(=O)(=O)c4cn(CCF)cn4)c3n2)cn1 [Compound 26, Diethyl 2-(4-(5-((1-(2-fluoroethyl)-1H-imidazol-4-yl)sulfonyl)-5H-pyrrolo[2,3-b]pyrazin-3-yl)-1H-pyrazol-1-yl)malonate] | 26.8 | 33.6 | 69 | – |
| CC(C)n1cnc(S(=O)(=O)n2ccc3ncc(-c4cn[nH]c4)nc32)c1 [Compound 30] | 40.4 | 77.1 | 94.5 | – |
| COC(=O)C(C(=O)OC)n1cc(-c2cnc3ccn(S(=O)(=O)c4cn(CCF)cn4)c3n2)cn1 [Compound 25, Dimethyl 2-(4-(5-((1-(2-fluoroethyl)-1H-imidazol-4-yl)sulfonyl)-5H-pyrrolo[2,3-b]pyrazin-3-yl)-1H-pyrazol-1-yl)malonate] | 23.5 | 46.5 | 83 | – |
| CN(C)C(=O)Cn1cc(-c2cnc3ccn(S(=O)(=O)c4cn(CCF)cn4)c3n2)cn1 [Compound 22, 2-(4-(5-((1-(2-Fluoroethyl)-1H-imidazol-4-yl)sulfonyl)-5H-pyrrolo[2,3-b]pyrazin-3-yl)-1H-pyrazol-1-yl)-N,N-dimethylacetamide] | 0.4 | 2.5 | 15.3 | – |
| O=S(=O)(c1cn(CCF)cn1)n1ccc2ncc(-c3cnn(C4CC4)c3)nc21 [Compound 14, 3-(1-Cyclopropyl-1H-pyrazol-4-yl)-5-((1-(2-fluoroethyl)-1H-imidazol-4-yl)sulfonyl)-5H-pyrrolo[2,3-b]pyrazine] | 4.7 | 2.2 | 2.8 | FGFR1 activity (in words) (FGFR1 enzymatic activity, Table 3): lost the FGFR1 activity |
| O=S(=O)(c1cnn2cccnc12)n1ccc2ncc(-c3cn[nH]c3)nc21 [Compound 34, 3-(1H-Pyrazol-4-yl)-5-(pyrazolo[1,5-a]pyrimidin-3-ylsulfonyl)-5H-pyrrolo[2,3-b]pyrazine] | – | 26.4 | 73.9 | – |
| O=S(=O)(c1cn(C2CCCC2)cn1)n1ccc2ncc(-c3cn[nH]c3)nc21 [Compound 32, 5-((1-Cyclopentyl-1H-imidazol-4-yl)sulfonyl)-3-(1H-pyrazol-4-yl)-5H-pyrrolo[2,3-b]pyrazine] | 4.9 | 20.1 | 71.7 | – |

From paper PMC6017193, “Structure-Based Discovery of a Series of 5H-Pyrrolo[2,3-b]pyrazine FGFR Kinase Inhibitors” (Molecules : A Journal of Synthetic Chemistry and Natural …, 2018)
